From ChEMBL document CHEMBL1641362, “Inhibition of P-glycoprotein-mediated Multidrug Resistance (MDR) by N,N-bis(cyclohexanol)amine aryl esters: further restriction of molecular flexibility maintains high potency and efficacy” (Bioorg Med Chem Lett, 2011)

Assay: Inhibition of Pgp-mediated multidrug resistance in doxorubicin-resistant human K562 cells assessed as drug level required for 50% increase in nuclear concentration of pirarubicin by fluorescence assay
Type: cell-based
Conditions: read-out: I50

COc1cc(C#CC(=O)O[C@H]2CC[C@H](N(C)[C@H]3CC[C@@H](OC(=O)c4cc(OC)c(OC)c(OC)c4)CC3)CC2)cc(OC)c1OC (mixture of isomers)
IC50: 80 nM

COc1cc(/C=C/C(=O)O[C@H]2CC[C@H](N(C)[C@H]3CC[C@@H](OC(=O)c4cc(OC)c(OC)c(OC)c4)CC3)CC2)cc(OC)c1OC (mixture of isomers)
IC50: 92 nM

COc1cc(C#CC(=O)O[C@H]2CC[C@H](N(C)[C@H]3CC[C@H](OC(=O)c4cc(OC)c(OC)c(OC)c4)CC3)CC2)cc(OC)c1OC
IC50: 70 nM

COc1cc(CCC(=O)O[C@H]2CC[C@@H](N(C)[C@H]3CC[C@H](OC(=O)c4cc(OC)c(OC)c(OC)c4)CC3)CC2)cc(OC)c1OC (mixture of isomers)
IC50: 350 nM

COc1cc(CCC(=O)O[C@H]2CC[C@H](N(C)[C@H]3CC[C@@H](OC(=O)c4cc(OC)c(OC)c(OC)c4)CC3)CC2)cc(OC)c1OC (mixture of isomers)
IC50: 630 nM

COc1cc(C#CC(=O)O[C@H]2CC[C@@H](N(C)[C@H]3CC[C@@H](OC(=O)c4cc(OC)c(OC)c(OC)c4)CC3)CC2)cc(OC)c1OC (mixture of isomers)
IC50: 70 nM

COc1cc(CCC(=O)O[C@H]2CC[C@@H](N(C)[C@H]3CC[C@@H](OC(=O)c4cc(OC)c(OC)c(OC)c4)CC3)CC2)cc(OC)c1OC
IC50: 1100 nM

COc1cc(C#CC(=O)O[C@H]2CC[C@@H](N(C)[C@H]3CC[C@H](OC(=O)c4cc(OC)c(OC)c(OC)c4)CC3)CC2)cc(OC)c1OC (mixture of isomers)
IC50: 20 nM

COc1cc(CCC(=O)O[C@H]2CC[C@H](N(C)[C@H]3CC[C@H](OC(=O)c4cc(OC)c(OC)c(OC)c4)CC3)CC2)cc(OC)c1OC (mixture of isomers)
IC50: 610 nM
